Reference: the NIST ThermoML archive (doi:10.1021/je060271a)
Numbers after ± are expanded uncertainties.

Conditions: Liquid, Vibrating tube method

CCCCCC(=O)OCC(COC(=O)CCCCC)(COC(=O)CCCCC)COC(=O)CCCCC [pentaerythritol tetrahexanoate]
Conditions | mass density [kg/m3]
323.16 K, 30799 kPa | 992.6 ± 1.2
323.16 K, 30820 kPa | 992.6 ± 1.2
323.16 K, 30845 kPa | 992.6 ± 1.2
323.16 K, 30870 kPa | 992.7 ± 1.2
323.16 K, 30895 kPa | 992.6 ± 1.2
323.16 K, 30916 kPa | 992.5 ± 1.2
323.16 K, 30942 kPa | 992.7 ± 1.2
323.16 K, 30968 kPa | 992.6 ± 1.2
323.16 K, 30994 kPa | 992.7 ± 1.2
323.16 K, 31020 kPa | 992.9 ± 1.2
323.16 K, 31046 kPa | 992.7 ± 1.2
323.16 K, 31070 kPa | 992.8 ± 1.2
323.16 K, 31096 kPa | 992.8 ± 1.2
323.16 K, 31122 kPa | 992.8 ± 1.2
323.16 K, 31139 kPa | 992.8 ± 1.2
323.16 K, 31159 kPa | 992.8 ± 1.2
323.16 K, 31180 kPa | 992.8 ± 1.2
323.16 K, 31200 kPa | 992.8 ± 1.2
323.16 K, 31217 kPa | 992.9 ± 1.2
323.16 K, 31237 kPa | 992.9 ± 1.2
323.16 K, 31258 kPa | 992.9 ± 1.2
323.16 K, 31278 kPa | 993 ± 1.2
323.16 K, 31295 kPa | 992.7 ± 1.2
323.16 K, 31315 kPa | 993 ± 1.2
323.16 K, 31335 kPa | 992.9 ± 1.2
323.16 K, 31356 kPa | 993 ± 1.2
323.16 K, 31378 kPa | 992.9 ± 1.2
323.16 K, 31395 kPa | 992.9 ± 1.2
323.16 K, 31412 kPa | 993 ± 1.2
323.16 K, 31433 kPa | 993.1 ± 1.2
323.16 K, 31554 kPa | 993.1 ± 1.2
323.16 K, 31575 kPa | 993.1 ± 1.2
323.16 K, 31592 kPa | 993.1 ± 1.2
323.16 K, 31613 kPa | 993 ± 1.2
323.16 K, 31635 kPa | 993 ± 1.2
323.16 K, 31777 kPa | 993.1 ± 1.2
323.16 K, 31798 kPa | 993.2 ± 1.2
323.16 K, 31820 kPa | 993.2 ± 1.2
323.16 K, 31838 kPa | 993.2 ± 1.2
323.16 K, 31860 kPa | 993.2 ± 1.2
323.16 K, 31882 kPa | 993.2 ± 1.2
323.16 K, 31905 kPa | 993.3 ± 1.2
323.16 K, 31927 kPa | 993.3 ± 1.2
323.16 K, 31950 kPa | 993.2 ± 1.2
323.16 K, 31973 kPa | 993.4 ± 1.2
323.16 K, 31996 kPa | 993.3 ± 1.2
323.16 K, 32016 kPa | 993.3 ± 1.2
323.16 K, 32032 kPa | 993.4 ± 1.2
323.16 K, 32048 kPa | 993.4 ± 1.2
323.16 K, 32064 kPa | 993.3 ± 1.2
323.16 K, 32081 kPa | 993.4 ± 1.2
323.16 K, 32097 kPa | 993.3 ± 1.2
323.16 K, 32114 kPa | 993.3 ± 1.2
323.16 K, 32132 kPa | 993.4 ± 1.2
323.16 K, 32149 kPa | 993.3 ± 1.2
323.16 K, 32165 kPa | 993.4 ± 1.2
323.16 K, 32183 kPa | 993.4 ± 1.2
323.16 K, 32202 kPa | 993.5 ± 1.2
323.16 K, 32221 kPa | 993.5 ± 1.2
323.16 K, 32240 kPa | 993.4 ± 1.2
323.16 K, 32260 kPa | 993.5 ± 1.2
323.16 K, 32366 kPa | 993.4 ± 1.2
323.16 K, 32374 kPa | 993.5 ± 1.2
323.16 K, 32380 kPa | 993.5 ± 1.2
323.16 K, 32383 kPa | 993.5 ± 1.2
323.17 K, 1378.9 kPa | 973.7 ± 1.2
323.17 K, 2060 kPa | 974 ± 1.2
323.17 K, 2070.1 kPa | 974.2 ± 1.2
323.17 K, 15528 kPa | 983.3 ± 1.2
323.17 K, 15553 kPa | 983.3 ± 1.2
323.17 K, 15582 kPa | 983.4 ± 1.2
323.17 K, 15606 kPa | 983.4 ± 1.2
